Test results published in CN114106008A, “一种从丹参中提取分离的二萜醌类化合物及其方法和应用” (Chengdu Push Bio Technology Co ltd, priority 2021, dated 2022).

Legend:
[1] = system: human large cell lung cancer cells H460 [人大细胞肺癌细胞 H460]; test: MTT proliferation inhibition, H460 cells, 72 h; assay type: cell-based
[2] = system: human myelomonocytic leukemia cells MV-4-11 [人髓性单核细胞白血病细胞 MV-4-11]; test: MTT proliferation inhibition, MV4-11 cells, 72 h; assay type: cell-based
[3] = system: human liver cancer cells HEPG-2 [人肝癌细胞HEPG-2]; test: MTT proliferation inhibition, HEPG-2 cells, 72 h; assay type: cell-based; details: 0.625-20 μg/ml
[4] = system: human diffuse large B lymphoma cells TMD-8 [人弥漫大B淋巴瘤细胞TMD-8]; test: MTT proliferation inhibition, TMD-8 cells, 72 h; assay type: cell-based
[5] = system: human cervical cancer cells HELA [人宫颈癌细胞HELA]; test: MTT proliferation inhibition, HELA cells, 72 h; assay type: cell-based; details: within the measured range (0.625-20 μg/ml)
[6] = system: human acute myeloid leukemia cells MOLM-13 [人急性髓系白血病细胞MOLM-13]; test: MTT proliferation inhibition, MOLM-13 cells, 72 h; assay type: cell-based
[7] = Water solubility (statement in words); assay type: physicochemical

Substance: 呋喃并[2 ' ',3 ' ':5 ' ',6 ' ']萘并[1 ' ',2'':7 ',8 ']环十二烷[1 ',2':5,6]萘并[1,2-b]呋喃-10,11,21,22-四酮,6,7,8,9,19,20-六氢-1,12,17-三甲基-6-亚甲基-,(17E)- [四氢甘西鼠尾新酮A]
- inhibition, concentration dependence ([1]; Figure 3, 0.625-20 μg/ml): 呈剂量依赖性
- IC50 ([1]; MTT): 1.131 µg/mL
- inhibition, concentration dependence ([2]; Figure 3, 0.625-20 μg/ml): 呈剂量依赖性
- IC50 ([2]; MTT): 1.239 µg/mL
- in vitro inhibitory activity [3]: 体外抑制活性较弱
- inhibition, concentration dependence ([4]; Figure 3, 0.625-20 μg/ml): 呈剂量依赖性
- IC50 ([4]; MTT): 1.388 µg/mL
- in vitro inhibitory activity [5]: 在测量范围内未发现抑制活性
- inhibition, concentration dependence ([6]; Figure 3, 0.625-20 μg/ml): 呈剂量依赖性
- IC50 ([6]; MTT): 1.9 µg/mL
- water solubility [7]: 水溶性较差
